Several values for one entry are separate records, joined by “and”; a condition that tells them apart may be missing. Identical values can stand only once.
Settings: for vapor or sublimation pressure: Crystal 1; for Triple point temperature: Adiabatic calorimetry

NC12CC3CC(CC(C3)C1)C2 [tricyclo(3.3.1.1:3,7)decan-1-amine]
Settings	vapor or sublimation pressure
291.05 K, Calculated from knudsen effusion weight loss	0.00621 kPa
291.07 K, Calculated from knudsen effusion weight loss	0.00627 kPa
291.2 K, Transpiration method	0.00632 kPa
293.54 K, Calculated from knudsen effusion weight loss	0.00757 kPa
293.55 K, Calculated from knudsen effusion weight loss	0.00752 kPa
294.2 K, Transpiration method	0.00832 kPa
297.1 K, Transpiration method	0.0107 kPa
300.1 K, Transpiration method	0.0137 kPa
303.2 K, Transpiration method	0.0186 kPa
305.6 K, Transpiration method	0.0223 kPa
305.94 K, Calculated from knudsen effusion weight loss	0.0211 kPa
305.98 K, Calculated from knudsen effusion weight loss	0.0204 kPa
308.1 K, Transpiration method	0.027 kPa
308.52 K, Calculated from knudsen effusion weight loss	0.0263 kPa
310.4 K, Transpiration method	0.0291 kPa
310.94 K, Calculated from knudsen effusion weight loss	0.0309 kPa and 0.0315 kPa
313.2 K, Transpiration method	0.0396 kPa
318 K, Transpiration method	0.0535 kPa
318.3 K, Transpiration method	0.0549 kPa
323.3 K, Transpiration method	0.0777 kPa
328.1 K, Transpiration method	0.108 kPa
333.4 K, Transpiration method	0.148 kPa and 0.153 kPa
338.3 K, Transpiration method	0.2 kPa
338.5 K, Transpiration method	0.205 kPa
343.4 K, Transpiration method	0.269 kPa
343.6 K, Transpiration method	0.286 kPa

Settings	mass density [kg/m3]
298.15 K, 101.33 kPa, Crystal 3, Pycnometric method	1100

Settings	Triple point temperature [K]
Crystal 2	284.6
Crystal 3	241.4

Reference: the NIST ThermoML archive (doi:10.1016/j.jct.2007.08.002)
